Data from article PMC6199744, “Development of Chemical Proteomics for the Folateome and Analysis of the Kinetoplastid Folateome” (ACS Infectious Diseases, 2018).
Where two headings read alike, the source gives them in different places.

Columns and labels:
Assay type in all cases: binding
[1] = target: T1, HeLa cell extract proteins (Homo sapiens, UniProt P09496)
T1 construct: endogenous in cells; host or cells: HeLa cell extract
T1 sequence (P09496 1-248): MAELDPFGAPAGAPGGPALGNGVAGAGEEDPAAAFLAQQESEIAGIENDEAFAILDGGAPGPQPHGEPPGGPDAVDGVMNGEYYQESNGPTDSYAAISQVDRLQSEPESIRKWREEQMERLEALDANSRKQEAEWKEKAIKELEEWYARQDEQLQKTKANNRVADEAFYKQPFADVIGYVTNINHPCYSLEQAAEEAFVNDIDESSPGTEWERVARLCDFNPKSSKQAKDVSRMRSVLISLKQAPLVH

[2] = target: T2, HeLa cell extract proteins (Homo sapiens, UniProt P26038)
T2 construct: endogenous in cells; host or cells: HeLa cell extract
T2 sequence (P26038 whole entry): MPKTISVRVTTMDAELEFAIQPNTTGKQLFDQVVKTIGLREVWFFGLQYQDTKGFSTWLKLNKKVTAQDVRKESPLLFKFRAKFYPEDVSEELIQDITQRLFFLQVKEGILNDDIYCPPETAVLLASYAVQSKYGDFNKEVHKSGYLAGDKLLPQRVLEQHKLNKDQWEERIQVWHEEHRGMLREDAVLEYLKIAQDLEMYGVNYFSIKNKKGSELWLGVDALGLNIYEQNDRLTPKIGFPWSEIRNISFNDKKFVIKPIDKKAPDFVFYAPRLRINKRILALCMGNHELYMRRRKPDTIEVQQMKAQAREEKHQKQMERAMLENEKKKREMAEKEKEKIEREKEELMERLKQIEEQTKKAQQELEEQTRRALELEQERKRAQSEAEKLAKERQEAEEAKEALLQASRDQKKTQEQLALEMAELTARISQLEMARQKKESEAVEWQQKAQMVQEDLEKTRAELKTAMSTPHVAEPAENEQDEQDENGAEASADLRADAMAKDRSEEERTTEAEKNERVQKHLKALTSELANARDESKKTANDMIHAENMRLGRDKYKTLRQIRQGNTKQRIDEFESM

[3] = target: T3, HeLa cell extract proteins (Homo sapiens, UniProt P40925)
T3 construct: endogenous in cells; host or cells: HeLa cell extract
T3 sequence (P40925 1-334): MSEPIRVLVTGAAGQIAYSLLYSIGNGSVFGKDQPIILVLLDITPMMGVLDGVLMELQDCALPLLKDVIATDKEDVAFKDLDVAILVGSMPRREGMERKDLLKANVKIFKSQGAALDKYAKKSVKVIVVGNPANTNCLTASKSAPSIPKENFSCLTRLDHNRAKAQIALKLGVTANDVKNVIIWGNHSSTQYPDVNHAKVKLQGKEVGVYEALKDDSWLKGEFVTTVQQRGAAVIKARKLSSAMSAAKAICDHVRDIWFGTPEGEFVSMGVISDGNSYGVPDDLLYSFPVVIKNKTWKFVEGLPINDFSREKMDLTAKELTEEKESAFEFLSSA

[4] = target: T4, HeLa cell extract proteins (Homo sapiens, UniProt P52789)
T4 construct: endogenous in cells; host or cells: HeLa cell extract
T4 sequence (P52789 1-917): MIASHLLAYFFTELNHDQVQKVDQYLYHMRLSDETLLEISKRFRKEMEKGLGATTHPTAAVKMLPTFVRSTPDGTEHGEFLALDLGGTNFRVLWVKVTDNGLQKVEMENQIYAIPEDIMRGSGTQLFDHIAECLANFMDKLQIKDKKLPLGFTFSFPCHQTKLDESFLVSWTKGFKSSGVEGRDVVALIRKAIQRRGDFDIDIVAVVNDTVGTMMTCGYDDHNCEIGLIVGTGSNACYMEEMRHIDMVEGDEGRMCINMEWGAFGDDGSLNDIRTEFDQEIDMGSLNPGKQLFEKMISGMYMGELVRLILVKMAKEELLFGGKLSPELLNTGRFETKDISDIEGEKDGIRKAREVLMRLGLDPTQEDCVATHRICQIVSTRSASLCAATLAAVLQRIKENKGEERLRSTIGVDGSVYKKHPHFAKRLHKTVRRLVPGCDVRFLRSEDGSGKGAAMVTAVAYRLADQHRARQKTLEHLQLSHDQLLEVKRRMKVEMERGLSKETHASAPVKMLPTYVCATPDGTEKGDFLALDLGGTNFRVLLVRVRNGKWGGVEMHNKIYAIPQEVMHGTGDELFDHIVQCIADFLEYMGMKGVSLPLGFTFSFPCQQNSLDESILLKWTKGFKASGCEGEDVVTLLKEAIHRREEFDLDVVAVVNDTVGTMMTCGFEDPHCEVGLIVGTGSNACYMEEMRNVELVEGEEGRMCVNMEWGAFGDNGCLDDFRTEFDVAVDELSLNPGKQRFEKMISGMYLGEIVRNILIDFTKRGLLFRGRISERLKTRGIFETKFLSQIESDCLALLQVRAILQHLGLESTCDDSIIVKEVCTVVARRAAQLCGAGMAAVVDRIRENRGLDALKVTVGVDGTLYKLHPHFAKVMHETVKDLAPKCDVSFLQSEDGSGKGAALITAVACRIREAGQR

[5] = target: T5, HeLa cell extract proteins (Homo sapiens, UniProt P53618)
T5 construct: endogenous in cells; host or cells: HeLa cell extract
T5 sequence (P53618 1-953): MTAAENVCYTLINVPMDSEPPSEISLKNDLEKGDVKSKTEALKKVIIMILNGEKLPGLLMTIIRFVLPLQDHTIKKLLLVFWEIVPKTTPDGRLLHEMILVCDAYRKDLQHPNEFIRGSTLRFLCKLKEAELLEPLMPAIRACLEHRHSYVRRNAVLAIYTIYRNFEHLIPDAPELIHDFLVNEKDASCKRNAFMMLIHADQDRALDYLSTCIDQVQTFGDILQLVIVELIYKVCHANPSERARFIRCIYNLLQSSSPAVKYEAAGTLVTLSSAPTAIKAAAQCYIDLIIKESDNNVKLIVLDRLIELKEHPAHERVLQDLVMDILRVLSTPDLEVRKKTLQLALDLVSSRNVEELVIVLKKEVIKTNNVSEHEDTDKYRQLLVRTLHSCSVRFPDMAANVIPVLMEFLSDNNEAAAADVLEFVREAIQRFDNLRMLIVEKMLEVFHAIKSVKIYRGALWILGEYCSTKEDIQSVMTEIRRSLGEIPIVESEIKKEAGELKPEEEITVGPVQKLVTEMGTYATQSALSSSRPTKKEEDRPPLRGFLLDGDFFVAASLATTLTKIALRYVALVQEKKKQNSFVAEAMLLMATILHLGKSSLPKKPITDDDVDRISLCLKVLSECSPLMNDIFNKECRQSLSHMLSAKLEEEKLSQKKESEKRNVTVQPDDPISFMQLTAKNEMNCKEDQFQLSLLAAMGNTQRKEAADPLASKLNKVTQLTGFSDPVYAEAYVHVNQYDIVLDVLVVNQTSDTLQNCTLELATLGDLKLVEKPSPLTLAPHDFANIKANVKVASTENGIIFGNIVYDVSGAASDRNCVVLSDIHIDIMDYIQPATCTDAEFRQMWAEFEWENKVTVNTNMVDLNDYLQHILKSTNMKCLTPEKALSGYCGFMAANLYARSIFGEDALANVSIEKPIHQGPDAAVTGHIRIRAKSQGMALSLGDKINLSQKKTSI

[6] = target: T6, HeLa cell extract proteins (Homo sapiens, UniProt Q08209)
T6 construct: endogenous in cells; host or cells: HeLa cell extract

[7] = HeLa, protein MDH1 (MALATE DEHYDROGENASE, CYTOPLASMIC.)

SMILES | fold changes relative to vehicle control ([1]; HeLa, captured protein CLTA) | fold changes relative to vehicle control ([2]; HeLa, protein MSN) | fold changes relative to vehicle control ([3]; HeLa, protein MDH1) | fold changes relative to vehicle control ([4]; HeLa, protein HK2) | fold changes relative to vehicle control ([5]; HeLa, protein COPB1) | fold changes relative to vehicle control ([6]; HeLa, protein PPP3CA) | fold changes relative to vehicle control [1] | fold changes relative to vehicle control [2] | fold changes relative to vehicle control [3] | fold changes relative to vehicle control [4] | fold changes relative to vehicle control [5] | fold changes relative to vehicle control [6] | fold changes relative to vehicle control ([1]; HeLa, protein CLTA) | fold changes relative to vehicle control ([2]; protein MSN, HeLa) | fold changes relative to vehicle control [3, 7] [fold] | fold changes relative to vehicle control ([4]; protein HK2, HeLa)
Nc1nc2c(c(=O)[nH]1)N(C=O)C(CNc1ccc(C(=O)N[C@@H](CCC(=O)O)C(=O)O)cc1)CN2 (stereo partly drawn) [LEU, leucovorin] | 1.19 | 0.93 | 1.01 | 1 | 0.87 | 0.97 |  |  |  |  |  |  |  |  |  | 
Nc1nc2[nH]cc(CCc3ccc(C(=O)N[C@@H](CCC(=O)O)C(=O)O)cc3)c2c(=O)[nH]1 [PTX, pemetrexed] |  |  |  |  |  |  | 1.55 | 0.97 | 1.2 | 1.02 | 0.84 | 0.91 |  |  |  | 
CCCCCCOc1ccc(Cc2cnc(N)nc2N)cc1 [compound 1] |  |  |  |  | 0.97 | 1.1 |  |  |  |  |  |  | 0.68 | 1.07 | 1.3 | 1.11
CCCCCCOc1cccc(Cc2cnc(N)nc2N)c1 [compound 2] |  |  |  |  | 1.07 | 1.13 |  |  |  |  |  |  | 0.99 | 1.81 | 2.15 | 1.43
Nc1nc2cccc(-c3ccccc3)c2n1Cc1ccc(Cl)c(Cl)c1 [compound 3] |  |  |  |  | 1.17 | 1.03 |  |  |  |  |  |  | 1.09 | 0.77 | 0.87 | 0.9
NCCOCCOCC(=O)Nc1nc2ncc(CNc3ccc(C(=O)NC(CCC(=O)O)C(=O)O)cc3)nc2c(=O)[nH]1 (stereo not drawn) [compound 6] | 1.48 | 1.08 | 1.42 | 1.21 | 0.92 | 0.95 |  |  |  |  |  |  |  |  |  | 
NCCCNc1ccc(C(=O)NC(CCC(=O)O)C(=O)O)cc1 (stereo not drawn) [compound 7] | 1.4 | 0.81 | 0.93 | 1.03 | 0.97 | 0.85 |  |  |  |  |  |  |  |  |  | 
